From US10167283B2, “β-lactamase inhibitors and uses thereof” (priority 2015, dated 2019)
Counter-ions that a name gives are not always drawn. Like-named read-outs stand apart in the source and are kept apart here.

What was measured:
[1] = Pharmacokinetics in SD rats (iv); assay type: in vivo, SD rat; details: male, plasma; for half-life / clearance: SD, rat, iv, 1 mg/kg; for clearance: read-out: Cl—obs (converted); for Vd / AUC(0-t): SD rat, iv 1 mg/kg; for Vd: apparent volume of distribution, read-out: Vss—obs; for AUC(0-t): area under the curve 0→t
Description: Experimental Example 1: Pharmacokinetics Experiments of the Compound of the Present Invention in Rats Test animals: 3 male SD rats, bodyweight 200-250 g for each animal. Test samples were administrated via intravenous push (iv), dosage of administration was 1 mg/kg, volume of administration was 2 mL/kg. Collecting time points: iv: after administration 0.083 […]. At each time point, about 100 μL of whole blood was sampled via caudal vein, added to K2EDTA anti-coagulative tube, centrifuged in a refrigerated centrifuge under 8000 rpm for 6 min to separate plasma, and the plasma was stored in -80° C. refrigerator. Plasma (20 μL) was taken and placed in a 96-well deep-well plate, and internal standard solution (300 μL) was added, subjected to vortex for 5 min, then centrifuged under 12000 rpm for 5 min, and then supernatant (200 μL) was taken and subjected to vortex for 3 min; to be analyzed by LC-MS/MS. Plasma (30 μL) was taken and placed in 1.5 mL EP tube, and internal standard solution (300 μL) was added, subjected to vortex for 5 min, then centrifuged under 12000 rpm for 5 min, and then supernatant (200 μL) was taken and subjected to vortex for 3 min; to be analyzed by LC-MS/MS. Plasma (30 μL) was taken and placed in a 96-well deep-well plate, and internal standard solution (200 μL) was added, subjected to vortex for 5 min, then centrifuged under 4000 rpm for 20 min, and then supernatant (100 μL) was taken and water (100 μL) was added, and subjected to vortex homogeneously; to be analyzed by LC-MS/MS.

AmpC = target: T1, AmpC (UniProt P05364); experiment: β-lactamase inhibition, Nitrocefin hydrolysis; assay type: biochemical; details: Nitrocefin 0.1 mM
T1 construct: The concentration of purchased β-lactamases mother liquor was 1 mg/mL, and the mother liquor was dissolved in 50% glycerol
Description: (§1) Nitrocefin, a kind of cephalosporin antibiotics, is sensitive to most of β-lactamases, and changes in color after being hydrolyzed. The hydrolysis rate of Nitrocefin was measured by real-time recording corresponding absorbance of reaction system. β-Lactamase inhibitors could inhibit hydrolysis of the enzymes to Nitrocefin, and reduce hydrolysis rate. By measuring reaction rates in the same reaction system under different inhibitor concentrations, the IC50 (half maximal inhibitory concentration) values of inhibitors were calculated.
(§2) Nitrocefin was dissolved in DMSO to form a solution with concentration of 2 mM, which was sub-packaged and stored at −20° C. The concentration of purchased β-lactamases mother liquor was 1 mg/mL, and the mother liquor was dissolved in 50% glycerol. A part of mother liquor was taken and diluted by 1000 times in reaction solution, sub-packaged and stored at ˜20° C.
(§3) The compounds to be tested were dissolved in DMSO to form a mother liquor with concentration of 10 mM. If not used that day, the mother liquor was stored at −20° C. Its test final concentrations were: 100 μM, 25 μM, 6.25 μM, 1.563 μM, 390.6 nM, 97.66 nM, 24.41 nM, 6.10 nM, 1.53 nM, 0.381 nM, 0.095 nM.

OXA-10 = target: T2, OXA-10 (Pseudomonas aeruginosa, UniProt P14489); experiment: β-lactamase inhibition, Nitrocefin hydrolysis; assay type: biochemical; details: Experiment 3; enzyme 10 nM, Nitrocefin 0.1 mM; read-out: IC50 Type D OXA-10
T2 construct: purchased
T2 sequence (P14489 20-266, species assumed): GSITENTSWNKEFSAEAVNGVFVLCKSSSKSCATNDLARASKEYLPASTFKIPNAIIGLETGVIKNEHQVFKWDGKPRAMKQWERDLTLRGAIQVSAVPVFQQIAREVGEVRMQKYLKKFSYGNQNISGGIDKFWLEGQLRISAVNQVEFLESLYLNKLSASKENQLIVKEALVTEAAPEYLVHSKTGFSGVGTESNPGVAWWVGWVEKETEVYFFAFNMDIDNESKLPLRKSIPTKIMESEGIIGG
Description: as §1, §2, §3

CTX-M-1 = target: T3, CTX-M-1 (Escherichia coli, UniProt P28585); experiment: β-lactamase inhibition, Nitrocefin hydrolysis; assay type: biochemical; details: Experiment 2; enzyme 0.2 nM, Nitrocefin 0.1 mM
T3 construct: purchased
T3 sequence (P28585 29-291): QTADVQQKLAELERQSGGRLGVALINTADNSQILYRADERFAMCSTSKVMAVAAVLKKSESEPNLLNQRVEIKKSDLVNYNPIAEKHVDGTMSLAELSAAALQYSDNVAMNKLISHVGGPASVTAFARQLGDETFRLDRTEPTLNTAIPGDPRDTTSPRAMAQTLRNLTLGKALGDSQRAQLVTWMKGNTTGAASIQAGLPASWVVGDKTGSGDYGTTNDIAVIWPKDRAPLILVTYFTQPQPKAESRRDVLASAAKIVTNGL
Description: as §1, §2, §3

KPC-2 = target: T4, KPC-2 (Klebsiella pneumoniae, UniProt Q9F663); experiment: β-lactamase inhibition, Nitrocefin hydrolysis; assay type: biochemical; details: Nitrocefin 0.1 mM
T4 construct: purchased
T4 sequence (Q9F663 25-293, looked up, species assumed): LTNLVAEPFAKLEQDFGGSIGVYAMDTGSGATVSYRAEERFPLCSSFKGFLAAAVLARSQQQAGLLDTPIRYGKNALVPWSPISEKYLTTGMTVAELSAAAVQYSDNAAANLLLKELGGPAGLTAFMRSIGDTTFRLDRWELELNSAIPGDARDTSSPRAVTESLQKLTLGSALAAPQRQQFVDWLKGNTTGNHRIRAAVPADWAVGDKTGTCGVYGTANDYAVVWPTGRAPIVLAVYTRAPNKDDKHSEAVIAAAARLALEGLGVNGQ
Description: as §1, §2, §3

TEM-1 = target: T5, TEM-1 (Escherichia coli, UniProt P62593); experiment: β-lactamase inhibition, Nitrocefin hydrolysis; assay type: biochemical; details: Nitrocefin 0.1 mM
T5 construct: purchased
T5 sequence (P62593 24-286 limits assumed): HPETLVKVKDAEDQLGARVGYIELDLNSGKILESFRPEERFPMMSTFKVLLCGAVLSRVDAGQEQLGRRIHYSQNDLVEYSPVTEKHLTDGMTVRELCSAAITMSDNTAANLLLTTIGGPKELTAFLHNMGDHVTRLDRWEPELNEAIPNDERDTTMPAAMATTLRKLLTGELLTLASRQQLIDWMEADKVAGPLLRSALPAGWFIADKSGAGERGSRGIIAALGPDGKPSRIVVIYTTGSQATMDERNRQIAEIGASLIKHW
Description: as §1, §2, §3

[2] = cited from earlier work
[3] = Experiment 1, enzyme 0.4 nM, read-out: IC50 Type C AmpC

Compound	half-life [1]	clearance [1]	Vd [1]	AUC(0-t) [1]	IC50 (AmpC; [3])	IC50 (OXA-10)	IC50 (AmpC; read-out: IC50 AmpC, Experiment 2, enzyme 1.6 nM)	IC50 (AmpC; read-out: IC50 Type C AmpC, Experiment 1, enzyme 0.4 nM)	IC50 (CTX-M-1)	IC50 (KPC-2; Experiment 1, read-out: IC50 Type A KPC-2)	IC50 (KPC-2; Experiment 2, enzyme 1.28 nM, read-out: IC50 KPC-2)	IC50 (TEM-1; Experiment 1, enzyme 0.25 nM, read-out: IC50 ESBLs type TEM-1)	IC50 (TEM-1; Experiment 2, enzyme 1 nM, read-out: IC50 TEM-1)	T1/2 in clinic [2]
NC(=O)[C@@H]1CC[C@@H]2CN1C(=O)N2OS(=O)(=O)O [AVI sodium salt, Avibactam, reference compound]	24.6 min	14.9 mL/min/kg	0.535 L/kg	1140 ng·h/mL	101 nM	25900 nM	–	–	–	–	–	–	–	–
O=C(NC1CC2(CNC2)C1)[C@@H]1CC[C@@H]2CN1C(=O)N2OS(=O)(=O)O [Compound 2, (2S,5R)-2-((2-azaspiro[3.3]heptan-6-yl)carbamoyl)-7-oxo-1,6-diazabicyclo[3.2.1]octan-6-yl hydrogen sulfate]	44.4 min	6.67 mL/min/kg	0.261 L/kg	2500 ng·h/mL	–	12200 nM	17.4 nM	32.6 nM	42.3 nM	61.1 nM	34.7 nM	28.5 nM	15.2 nM	–
O=C(NC1CCNCC1)[C@@H]1CC[C@@H]2CN1C(=O)N2OS(=O)(=O)O [MK-7655, reference compound]	23.4 min	16.7 mL/min/kg	0.409 L/kg	1020 ng·h/mL	49.5 nM	–	–	–	–	–	–	–	–	102 min
